Data published in publication PMC5762535, “Novel indazole-based small compounds enhance TRAIL-induced apoptosis by inhibiting the MKK7-TIPRL interaction in hepatocellular carcinoma” (Oncotarget, 2017).
Read-outs that look alike come from different tables or passages of the source.

Experiments:
caspase-3 = assay: Caspase 3 activity assay in Huh7 cells; type: cell-based, human; conditions: each compound at its working concentration and time of the table
Procedure: The caspase 3 activity was measured using a caspase-3 luminescent assay kit (Promega, Madison, WI, USA), according to the manufacturer's instructions, and a luminescence plate reader (Molecular Devices Co., Sunnyvale, USA).

Huh7 tumor xenografts = assay: In vivo Huh7 xenograft assay; set-up: species or system BALB/c nude mice
From the text: Five-week-old female BALB/c nude mice were purchased from SLC Japan and were maintained in accordance with the guidelines of the Institutional Review Committee for Animal Care and Use of the Korea Research Institute of Bioscience and Biotechnology. Protocol approval was obtained from the same committee.
Huh7 cells were harvested and subcutaneously injected (5 × 10^6 cells/mouse) into nude mice (N = 6/group for TRT-0173 or TRT-0029 experiments). When the tumor volume reached ~100 mm^3, the mice were divided into four groups and treated with vehicle, TRAIL (2.5 mg/kg, intraperitoneal), lead compound (TRT-0029 or TRT-0173, 30 mg/kg, intravenously), or lead compound (30 mg/kg, intravenously) combined with TRAIL (2.5 mg/kg, intraperitoneal) daily for 11 days (11 treatments in total). The tumor volumes were measured every 2 days for 11 days after treatment, and tumor volume was calculated according to the following equation: V (mm^3) = width^2 (mm^2) × length (mm)/2. Body weight and tumor mass were measured 11 days after treatment.

MKK7-TIPRL interaction = target: T1, MKK7-TIPRL interaction (Homo sapiens, UniProt O14733+O75663); assay: GST pull-down assay of MKK7-TIPRL in 293T cells; type: cell-based; conditions: 10 μM TRT-0029 or 20 μM TRT-0173, 24 h
T1 sequence (O14733 1-419): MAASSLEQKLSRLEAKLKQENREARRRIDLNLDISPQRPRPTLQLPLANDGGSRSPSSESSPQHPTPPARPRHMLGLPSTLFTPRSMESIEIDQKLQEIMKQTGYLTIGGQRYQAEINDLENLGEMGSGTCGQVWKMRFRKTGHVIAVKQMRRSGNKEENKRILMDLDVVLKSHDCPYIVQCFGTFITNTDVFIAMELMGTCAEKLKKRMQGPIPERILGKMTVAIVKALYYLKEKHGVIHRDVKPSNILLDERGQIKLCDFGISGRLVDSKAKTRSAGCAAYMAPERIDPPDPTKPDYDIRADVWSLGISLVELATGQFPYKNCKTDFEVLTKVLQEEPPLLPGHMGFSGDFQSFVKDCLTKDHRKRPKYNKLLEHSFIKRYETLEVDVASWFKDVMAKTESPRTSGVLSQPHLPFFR
T1 sequence (O75663 1-272): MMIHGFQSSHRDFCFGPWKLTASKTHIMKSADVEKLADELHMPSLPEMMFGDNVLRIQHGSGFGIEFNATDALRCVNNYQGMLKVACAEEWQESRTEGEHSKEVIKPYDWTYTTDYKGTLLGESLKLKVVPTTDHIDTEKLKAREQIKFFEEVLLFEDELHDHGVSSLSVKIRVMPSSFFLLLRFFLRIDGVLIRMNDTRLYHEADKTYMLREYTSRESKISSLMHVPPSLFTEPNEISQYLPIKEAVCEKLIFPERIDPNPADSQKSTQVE
Procedure: The full-length cDNAs of human TIPRL and MKK7 were subcloned into the pCGN vector (W. Herr, Cold Spring Harbor Laboratory) and the pEBG vector containing a GST tag to construct the HA-tagged and the GST-tagged plasmids, respectively. 293T cells were transfected with expression vector constructs using the TurboFect Transfection Reagent (Thermo Fisher Scientific, Lafayette, USA) and then were lysed in RIPA buffer (50 mM Tris-HCl, 150 mM NaCl, 1% Triton™ X-100, 0.1% SDS, 1 mM EDTA, 1 mM Na3VO4, and 1 mM NaF) containing complete protease inhibitor cocktail (Roche Applied Science, Indianapolis, USA). Whole-cell extracts were incubated with Glutathione Sepharose 4B (GE Healthcare, Uppsala, Sweden), and the eluted GST-tagged proteins were subjected to Western blotting using the indicated antibodies.

caspase-3 and PARP = assay: Western blot of cleaved caspase-3 and PARP in Huh7 cells; type: cell-based, human; conditions: lead compounds co-treated with TRAIL 100 ng/ml, TRAIL tested alone
Procedure: The cells were lysed in lysis buffer (50 mM Tris-HCl, pH 7.4, 150 mM NaCl, 1% Triton™ X-100, 0.1% SDS, 1 mM EDTA, 1 mM Na3VO4, 1 mM NaF, and protease inhibitor cocktail) and clarified by centrifugation at 14,000×g for 20 min at 4°C. The protein samples were then subjected to Western blotting with the indicated antibodies.

HepG2 cells = assay: MTT cell viability assay, HepG2 cells; type: cell-based, human; conditions: 10 µM TRT-0029 or 20 µM TRT-0173 plus TRAIL 100 ng/ml, 24 h
Procedure: (§1) Cell viability was assessed using a 3-(4,5-dimethylthiazol-2-yl)-2,5-diphenyltetrazolium bromide (MTT, Sigma-Aldrich, St. Louis, USA) assay. The cells were seeded at a density of 1 × 10^4 cells per well and treated with the lead compounds and/or TRAIL. After 24 or 48 h, MTT (2 mg/ml) was added to each well, and the absorbance was measured using a microplate reader (Bio-Rad, Hercules, USA) at 570 nm. The cell viability was calculated as the percentage of viable cells in the drug-treated group versus the untreated control using the following equation: cell viability (%) = [OD (drug)-OD (blank)]/[OD (control)-OD (blank)] × 100.

Pharmacokinetics in rats = type: in vivo, Sprague-Dawley rats; conditions: rat; for AUC: male, Sprague-Dawley, plasma, after 24 h
Procedure: Male Sprague-Dawley rats anesthetized with ketamine were cannulated with polyethylene tubing in the femoral vein. A solution of lead compound (TRT-0029 or TRT-0173) was prepared by dissolving the compounds in a mixture of dimethyl sulfoxide (DMSO)/ polyethylene glycol 400 (PEG 400)/ distilled water (0.5: 4: 5.5), and was administered to rats by a bolus injection in the femoral vein. Blood samples were collected via the femoral vein 0, 2, 10, and 30 min, as well as 1, 2, 4, 6, 8, and 24 h after intravenous administration. For oral administration, blood was collected 0.25, 0.5, 1, 2, 4, 6, 8, and 24 h after treatment. The plasma fractions were prepared by centrifugation and were stored at −70°C before the liquid chromatography-tandem mass spectrometry (LC/MS/MS) analysis. The concentrations of target compound in the plasma were measured using LC-MS/MS (4000 QTRAP, AB SCIEX, Foster City, CA) in multiple reaction monitoring (MRM) mode. The PK parameters were determined with non-compartmental methods using Phoenix WinNolin (Pharsight, Mountain View, CA). The area under the plasma concentration-time curve (AUC) was calculated using the trapezoidal rule extrapolated to infinity. The terminal elimination half-life (t1/2), and the systemic clearance (CL) were obtained. The peak plasma concentration (Cmax) after oral administration was obtained by visual inspection of the plasma concentration-time plot of each rat.

[1] = MTT cell viability assay, Huh7 cells; type: cell-based, human; conditions: human, Huh7 cells; Huh7, MTT, 10 µM, 24 hrs, without TRAIL; Supplementary Table 3; read-out: Cell viability assay Compound only
Procedure: as §1

Huh7 cells = assay: MTT cell viability assay, Huh7 cells; type: cell-based, human
Procedure: as §1

interaction between MKK7 and TIPRL in GST pull-down assay, compared with untreated cells (MKK7-TIPRL interaction): significantly decreased the interaction
AUC (Pharmacokinetics in rats; iv, i.v. 5 mg/kg, read-out: AUC (i.v.)): 4270 ng·h/mL
AUC (Pharmacokinetics in rats; po, p.o. 5 mg/kg, read-out: AUC (p.o.)): 1150 ng·h/mL
oral availability (Pharmacokinetics in rats; 5 mg/kg i.v. and p.o.): 26.8%
Compound: COc1ccc(S(=O)(=O)Nc2ccc3c(cnn3-c3ccc(F)cc3)c2)cc1 [TRT-0173]
Caspase 3 activity Compound + TRAIL/Compound (caspase-3): 2.10 ratio
tumor volume / tumor growth at 11 days, compound + TRAIL compared with compound alone (Huh7 tumor xenografts; compound 30 mg/kg i.v. plus TRAIL 2.5 mg/kg i.p. daily): moderately inhibited tumor growth
reduction of average tumor mass, lead compound + TRAIL (Huh7 tumor xenografts; compound 30 mg/kg i.v. plus TRAIL 2.5 mg/kg i.p. daily for 11 days, versus vehicle control): 42.2%
apoptosis signals (cleaved caspase-3, PARP) by Western blotting (caspase-3 and PARP): activated apoptosis signals
decrease of HepG2 viability by co-treatment with TRAIL (HepG2 cells): 53%
viability at 24 h, 10 µM [1]: 53%
reduction of cell viability of Huh7 cells by co-treatment with TRAIL, compared to TRAIL alone (Huh7 cells; 10 μM TRT-0029 or 20 μM TRT-0173 plus TRAIL, 24 h): ~90%
viability at 10 µM (Huh7 cells; Homo sapiens, Huh-7, Huh7, MTT, 10 µM, 24 hrs, with TRAIL, Supplementary Table 3, read-out: Cell viability assay Compound + TRAIL): 7%
effective working concentration (Huh7 cells; Huh7 cells, various doses with and without TRAIL (100 ng/ml), 24 h): 20 µM
